Literature values as cited in US20170340580A1, “BIOADHESIVE PATCH” (priority 2008, published 2017).

Conditions: 8 mg ml^−1; temperatures up to 37° C.

ALA stability in 0.1 M borate buffer pH 5: up to 6 hours
Structure (SMILES): NCC(=O)CCC(=O)O [ALA, 5-aminolevulinic acid]
